In patent US8729047B2, “Compositions for inhibiting redox-sensitive GTPases” (Board of Regents, The University of Texas System, priority 2010, dated 2014):
Where two headings read alike, the source gives them in different places.

Tests used:
Rac1 = Rac1 (Homo sapiens, UniProt P63000); assay: Rac1 expression (Western) and Rac1 G-LISA activity in activated T cells; assay type: cell-based
Experimental: FIG. 26. Determination of Rac1 activity and ERM phosphorylation. […] (A) The soluble cell extract was then used to perform Western blot analyses for Rac1 and the ERM. This cell extract also was used for the co-IP-based ESI-MS analysis (FIG. 8). (B) A Rac1 activity assay was colorimetrically determined using cell extract; the assay was performed with the Rac1 G-LISA Activation Assay Kit (Cat. No. BK125) (Denver, Colo.). To examine the level of phosphorylation of the ERM, cells were cultured in complete RPMI 1640 medium with ˜50 μCi of ^32P/mL before initiating stimulation of T cells. The collected cell extract was nutated with resin coupled with a human ERM (231C2a) antibody (Santa Cruz Biotechnology, CA) at 4° C. for 5 h. […] The immunoprecipitates were then analyzed by SDS-PAGE and autoradiographed. […] The data represented in the figure represent the mean values of triplicate measurements, and the vertical error bar indicates standard errors.

RhoC = RhoC (Homo sapiens, UniProt P08134); assay: Guanine nucleotide exchange of [3H]GDP-loaded GTPase with 6-TGDP (FIG. 13A); assay type: binding; set-up: made in house; host or cells: E. coli
Sequence of RhoC (P08134 whole entry): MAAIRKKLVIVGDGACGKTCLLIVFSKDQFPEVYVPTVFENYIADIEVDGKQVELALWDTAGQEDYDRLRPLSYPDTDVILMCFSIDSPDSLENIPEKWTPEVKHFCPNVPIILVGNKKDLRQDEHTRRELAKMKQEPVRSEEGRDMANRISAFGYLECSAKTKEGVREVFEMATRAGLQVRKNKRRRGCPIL
Experimental: FIG. 13. Guanine nucleotide exchange of small GTPases with 6-TGDP. (A) To monitor 6-TGDP-mediated GTPase GDP dissociation, [^3H]GDP-loaded GTPase (1 μM) was incubated with 6-TGDP (0-2000 μM) for 1 h. (B) To monitor GTPase 6-TGDP dissociation by GDP (0-2000 μM) in the presence and absence of dithiothreitol (DTT), 6-TGDP-loaded GTPase (˜1 μM) was treated with .NO2 (˜3 μM) under anaerobic conditions and was incubated with various concentrations of [^3H]GDP (0-2000 μM) in the presence and absence of DTT (10 mM) for 1 h. For all assays, aliquots were withdrawn and spotted onto nitrocellulose filters. The filters were then washed three times with an assay buffer, and radioactivity was determined using a Beckman-Coulter scintillation counter. The resultant radioactivity (dpm) values associated with GTPase-bound [^3H]GDP were converted into the fraction of mol nucleotide per mol total GTPase. The data presented represent mean and standard error values from triplicate measurements. The apparent dissociation constants (appKD values) of GTPase 6-TGDP association ([^3H]GDP dissociation, A); and 6-TGDP dissociation ([3H]GDP association, B) were obtained by fitting the data to a simple dissociation and association, respectively. (A) The ^appKD values of Ras, RhoC, RhoA and Rac1 for 6-TGDP, are, respectively, 2300, 230, 224, and 245 μM [6-TGDP]. (B) The appKD values of RhoC with and without DTT are, respectively, 560, and 1000 μM [[^3H]GDP], whereas the ^appKD values of Ras with and without DTT are 530, and 520 μM [[^3H]GDP], respectively. The standard errors of each ^appKD value are less than 10% of their given values, and regression values associated with the fit were r^2>0.9560.
A kinetic assay method using radiolabeled GDP ([^3H]GDP) was established. The apparent dissociation constants (^appKD 6-TGDP) of Rho GTPases (including RhoA, Cdc42, and Rac1/2/3) and Ras with 6-TGDP were determined (FIG. 13). The results of this preliminary kinetic study provided strong support for the mechanism proposed for the role of 6-TGNP in RhoC inactivation (FIG. 7).
The true dissociation constant (^trueKD 6-TGDP) of Ras, RhoC, RhoA and Rac1 for 6-TGDP was then calculated to be ˜20.7 pM, 212 μM, 208 μM, and 158 μM [6-TGDP] by using a compensation equation, ^trueKD 6-TGDP=^appKD 6-TGDP/(1+[GDP]/^trueKD GDP) (95), in conjunction with the values given [(^appKD 6-TGDP of Ras, RhoC, RhoA, and Rac1=2300, 230, 224, and 245 μM (FIG. 13) and ^trueKD GDP=9 pM, 12 μM, 13 μM and 1.8 μM, respectively. The ^trueKD GDP of Ras, RhoA and Rac1 was determined previously (Lenzen et al. Biochemistry 37, 7420-7430 (1998); Heo et al. Biochemistry 44, 6573-6585 (2005)) and the ^trueKD GDP of RhoC was further determined. Example: ^trueKD 6-TGDP for Ras=2300 μM/(1+1 μM GDP/[…])=[…] [6-TGDP]].

`Nc1nc2nc[nH]c2c(=S)[nH]1` [6-TG, 6-thioguanine] was tested, and the Rac1 inactivation (Rac1; 6-TG 1 μM, within 3 days, FIG. 26B) was “significant portion of Rac1 was inactivated”, the “fraction of inactive Rac1” value (Rac1; 6-TG plus DETA/NO 10 μM) was “synergistically increases the fraction of inactive Rac1” and the “cellular expression level of Rac1 and ERM” value (Rac1; presence or absence of 6-TG, FIG. 26A) was “not changed”.

With `Nc1nc2c(ncn2[C@@H]2O[C@H](COP(=O)(O)OP(=O)(O)O)[C@@H](O)[C@H]2O)c(=O)[nH]1` [GDP] the Kd (RhoC; further determined (Example 2), read-out: trueKD GDP) was 12 µM.

With `Nc1nc2c(ncn2[C@@H]2O[C@H](COP(=O)(O)OP(=O)(O)O)[C@@H](O)[C@H]2O)c(=S)[nH]1` [6-TGDP, 6-thioguanosine diphosphate] the Kd (RhoC; [3H]GDP-loaded GTPase 1 μM, 6-TGDP 0-2000 μM, 1 h, FIG. 13A, read-out: appKD for 6-TGDP) was 230 µM and the Kd (RhoC; calculated by compensation equation from appKD 6-TGDP and trueKD GDP, read-out: trueKD 6-TGDP) was 212 µM.

`Nc1nc2[nH]c(S)nc2c(=O)[nH]1` [8-TG, 2-amino-8-mercapto-1H-purin-6(9H)-one] was tested, and the “screen of 6-TP isomers on Rac1 activity” value (Rac1; not shown) was “most effectively inhibits Rac1 activity”.
